In patent US4618678A, “4-(2,3-dichloro-6-fluorophenyl)-1,4,5,6,7,8-hexahyd ro-2-methyl-5-oxo-1,7-naphthyridine-3-carboxylic acid 2-(2,3-dichlorophenoxy)ethyl ester” (American Home Products Corporation, priority 1985, dated 1986):

Key:
[1] = tested on: arterial actin-myosin interactions; experiment: Inhibition of superprecipitation (antagonism of arterial actin-myosin interaction); format: biochemical; settings: for antagonism of arterial actin-myosin interactions (in words): 'unlike' = does not antagonize as the compounds of the invention do; for Antag. of Actin-Myosin (percent inhibition of superprecipitation): six minute time-point
Procedure: (§1) The data reported herein was obtained at a six minute time-point rather than the 1.5, 5 and 12 minute time points indicated in the superprecipitation assay of the Silver et al. paper.
(§2) The following examples illustrate the preparation of a representative number of compounds of this invention. After each example, the Ca^+2 antagonist activity of the compound is presented in terms of percent relaxation of aortic tissue (P.R.) at 10^-5 M concentration. […] Inhibition of superprecipitation (Antag. of Actin-Myosin interaction) is expressed as percent inhibition (mean±standard error of the mean for at least 3 separate experiments) at a compound concentration. In the same manner, inhibition of myosin light chain phosphorylation (Antag. of MLCP) is expressed as a percent inhibition at a compound concentration. Similarly, the antihypertensive activity is reported in terms of millimeters mercury (mmHg) systolic blood pressure (B.P.) reduction at the stated time post 50 mg/kg oral dosing or other dosing as indicated.

[2] = tested on: Ca^+2 -calmodulin dependent myosin light chain phosphorylation; experiment: Inhibition of Ca+2-calmodulin dependent myosin light chain phosphorylation (MLCP); format: biochemical; settings: 'unlike' = does not antagonize as the compounds of the invention do
Procedure: as §1, §2

[3] = tested on: spontaneously hypertensive rats; experiment: Hypotensive effect on systolic blood pressure of spontaneously hypertensive rats; format: in vivo, rat; settings: SHR, oral, 10 mg/kg, at 1.5 hours
[4] = tested on: isolated paced intact rabbit atria; experiment: Cardiac depressant (negative inotropic) effect in isolated paced intact rabbit atria; format: cell-based; settings: 3 Hz, 30° C.
Procedure: The potential for detrimental cardiac depressant (negative inotropic) effects of the compounds of this invention was assessed in isolated paced intact rabbit atria. Left and right atria (with nodal tissue excised) were suspended vertically in a jacketed (30° C.) organ bath containing 50 ml of PSS and aerated with 95% O2 /5% CO2. Muscles (N=5-9/compound) were stimulated at a frequency of 3 Hz with a WPI stimulator for a 60 minute equilibration period. Changes in isometric force were recorded as described for the aoritc smooth muscle experiments,supra. Following equilibration, the test compound (or as a control, the ethanol vehicle) was added to the organ bath in a cumulative manner from doses ranging from 10^-9 M to 10^-5 M (10^-5 M was the maximum dose which could be attained due to the depressant effect of ethanol) and effects on developed isometric force were determined. […]
The following examples illustrate the preparation of a representative number of compounds of this invention. […] Inhibition of superprecipitation (Antag. of Actin-Myosin interaction) is expressed as percent inhibition (mean±standard error of the mean for at least 3 separate experiments) at a compound concentration. In the same manner, inhibition of myosin light chain phosphorylation (Antag. of MLCP) is expressed as a percent inhibition at a compound concentration. […]

Row | Structure (SMILES) | antagonism of arterial actin-myosin interactions (in words) [1] | antagonism of Ca^+2 -calmodulin dependent myosin light chain phosphorylation (in words) [2] | B.P. (systolic blood pressure reduction) [3] | Antag. of Actin-Myosin (percent inhibition of superprecipitation) ([1]; 100 μM) | IC25 (concentration producing 25% inhibition of isometric force) [4] | Antag. of Actin-Myosin (percent inhibition of superprecipitation) ([1]; 50 μM)
1 | COC(=O)C1=C(C)NC(C)=C(C(=O)OC)C1c1ccccc1[N+](=O)[O-] [nifedipine, reference compound] | unlike | unlike | – | – | – | –
2 | CC1=C(C(=O)OCCOc2ccccc2)C(c2c(F)c(F)c(F)c(F)c2F)C2=C(CNCC2=O)N1 (racemic) [Example 2, 1,4,5,6,7,8-Hexahydro-2-methyl-5-oxo-4-(pentafluorophenyl)-1,7-naphthyridine-3-carboxylic acid 2-phenoxyethyl ester] | – | – | 39 mm | 72±2% | – | –
3 | CC1=C(C(=O)OCCOc2ccccc2)C(c2c(F)c(F)c(F)c(F)c2F)C2=C(CNCC2=O)N1 (single isomer, unassigned; (-)) [Example 3, (-)-1,4,5,6,7,8-Hexahydro-2-methyl-5-oxo-4-(pentafluorophenyl)-1,7-naphthyridine-3-carboxylic acid 2-phenoxyethyl ester] | – | – | – | 76% | > 10 µM | 65%
4 | CCOC(=O)C1=C(C)NC(C)=C(C(=O)OC)C1c1cccc([N+](=O)[O-])c1 (centres unmarked) [nitrendipine, reference compound] | unlike | unlike | – | – | – | –
5 | COc1ccc(CCN(C)CCCC(C#N)(c2ccc(OC)c(OC)c2)C(C)C)cc1OC (centres unmarked) [Verapamil, reference compound] | unlike | unlike | – | – | – | –
6 | CC1=C(C(=O)OCCOc2ccccc2)C(c2c(F)c(F)c(F)c(F)c2F)C2=C(CNCC2=O)N1 (single isomer, unassigned; (+)) [Example 4, (+)-1,4,5,6,7,8-Hexahydro-2-methyl-5-oxo-4-(pentafluorophenyl)-1,7-naphthyridine-3-carboxylic acid 2-phenoxyethyl ester] | – | – | – | 71% | 0.8 µM | 38%
